We go through one molecule from ChEMBL document CHEMBL1137327, “Optimization of chromone-2-carboxamide melanin concentrating hormone receptor 1 antagonists: assessment of potency, efficacy, and cardiovascular safety” (J Med Chem, 2006).

A short description of data set [1]: Drug level in C57BL/6J DIO mouse brain at 3 mg/kg, po after 22 days. The data set is classed as ADME, organism-based. More on the design: dose 3 mg/kg, route oral. The settings on record: read-out: Drug uptake.
A short description of data set [2]: Drug level in anasthetized Beagle dog plasma at 10 mg/kg, iv after 30 mins. The arrangement: dose 10 mg/kg, route intravenous. The data set is classed as ADME, organism-based, Canis lupus familiaris.
For data set [3], the system named is Mus musculus. Description: Decrease in body weight of C57BL/6J DIO mouse at 10 mg/kg, po after 22 days relative to control. The data set is classed as functional. More on the design: scale not given: the % may be the effect or the level left.
For data set [4], the system named is Rattus norvegicus. Briefly: Drug level in anesthetized Sprague-Dawley rat brain. The data set is classed as ADME, organism-based. The settings on record: in vivo.
Data set [5] can be described thus: Half life in C57BL/6J DIO mouse plasma at 10 mg/kg, po. The data set is classed as ADME, organism-based. More on the design: dose 10 mg/kg, route oral.
The species named for data set [6] is Canis familiaris. Briefly: Decrease in heart rate in anasthetized Beagle dog at 10.94 ug/ml relative to control. The data set is classed as functional, Canis lupus familiaris. The arrangement: scale not given: the % may be the effect or the level left.
Data set [7] in a line: Cmax in C57BL/6J DIO mouse brain at 10 mg/kg, po. The data set is classed as ADME, organism-based. More on the design: dose 10 mg/kg, route oral.
A short description of data set [8]: Drug level in C57BL/6J DIO mouse brain at 10 mg/kg, po after 22 days. The settings on record: read-out: Drug uptake. The data set is classed as ADME, organism-based. More on the design: dose 10 mg/kg, route oral.
A short description of data set [9]: Half life in C57BL/6J DIO mouse brain at 10 mg/kg, po. More on the design: dose 10 mg/kg, route oral. The data set is classed as ADME, organism-based.
The nature of data set [10]: Ratio of AUC in brain to plasma of C57BL/6J DIO mouse at 10 mg/kg, po. The data set is classed as ADME, organism-based. The arrangement: dose 10 mg/kg, route oral. The conditions noted are these: brain and plasma, read-out: Ratio AUC.
Data set [11] can be described thus: Drug level in C57BL/6J DIO mouse plasma at 3 mg/kg, po after 22 days. The data set is classed as ADME, organism-based. More on the design: dose 3 mg/kg, route oral.
Data set [12] in a line: Cmax in C57BL/6J DIO mouse plasma at 10 mg/kg, po. The data set is classed as ADME, organism-based. The arrangement: dose 10 mg/kg, route oral. The settings on record: read-out: Cp.
Data set [13] in a line: Drug level in anasthetized Beagle dog plasma at 30 mg/kg, iv after 30 mins. The data set is classed as ADME, organism-based, Canis lupus familiaris. More on the design: dose 30 mg/kg, route intravenous.
Data set [14] relates to Mus musculus. Description: Decrease in body weight of C57BL/6J DIO mouse at 3 mg/kg, po after 22 days relative to control. The data set is classed as functional. The arrangement: scale not given: the % may be the effect or the level left.
Data set [15] is described as follows: AUC in C57BL/6J DIO mouse plasma at 10 mg/kg, po. The data set is classed as ADME, organism-based. More on the design: dose 10 mg/kg, route oral.
Data set [16] is described as follows: Drug level in anasthetized Beagle dog plasma at 3 mg/kg, iv after 30 mins. The data set is classed as ADME, organism-based, Canis lupus familiaris. More on the design: dose 3 mg/kg, route intravenous.
Data set [17] relates to Rattus norvegicus. Description: Drug level in anesthetized Sprague-Dawley rat plasma. The data set is classed as ADME, organism-based. The conditions noted are these: in vivo.
Data set [18] is described as follows: Drug level in C57BL/6J DIO mouse plasma at 10 mg/kg, po after 22 days. The arrangement: dose 10 mg/kg, route oral. The data set is classed as ADME, organism-based.
The species named for data set [19] is Canis familiaris. Description: Decrease in heart rate in anasthetized Beagle dog at 36.13 ug/ml relative to control. The data set is classed as functional, Canis lupus familiaris. More on the design: scale not given: the % may be the effect or the level left.
Data set [20] concerns Mus musculus. Description: AUC in C57BL/6J DIO mouse brain at 10 mg/kg, po. The arrangement: dose 10 mg/kg, route oral. The conditions noted are these: in vivo. The data set is classed as ADME, organism-based.

On to `O=C(NC1CCN(Cc2ccc3c(c2)OCO3)CC1)c1cc(=O)c2ccc(F)cc2o1`, for which the concentration at 528 h in data set [1] amounted to 1110 ng/g; in [8], 4670 ng/g; in data set [11], 840 ng/mL; in data set [18] it was 3270 ng/mL. Moreover, the figures for the concentration at 0.5 h in data set [2], in data set [13] and in data set [16] were 25.8 µM, 85.1 µM and 5.9 µM, respectively. For the same molecule, the Activity in the data set with Mus musculus [3] came out at 7%; in the data set listed under Canis familiaris [6], 22%; in the data set with Mus musculus [14], 0%; in the data set filed under Canis familiaris [19], 11%. In the data set on Rattus norvegicus [4], this molecule displayed a Drug uptake of 126 µg/g. The half-life – broadly, how long it takes for the measured level to halve – is 2.5 h in [5] and 2.4 h in [9]. Also, the Cmax in [7] was determined as 4370 ng/g; in [12], 1780 ng/mL. Moreover, the Kp in data set [10] turned out to be 1.4. Besides, the results for the AUC (in [15]; with Mus musculus [20]) were 9290 ng·h/mL and 12658 ng·h/g, respectively. Moreover, the Cp with Rattus norvegicus [17] stood at 62000 ng/mL.
